# Reference: patent US20250326799A1, “AGENTS INDUCING VASCULARISATION” (Coegin Pharma AB, priority 2022, published 2025)
# “Also recorded” adds a separate entry of the source.
# Assays:
# Format in all cases: cell-based
# [1] = tested on: Human umbilical cord endothelial cells (HUVECs); assay: Endothelial tube formation on Geltrex matrix; settings: for tube formation (total length, master segments, branching, segments length): HUVECs treated with peptide; for endothelial tube formation after NRP-1 knock-down / endothelial tube formation: HUVECs; for endothelial tube formation after NRP-1 knock-down: siRNA-NC or siNRP-1 group, then rising dose of peptide; for endothelial tube formation: 10 nM, 100 nM, 1000 nM, compared to control
# Method: Cells were transfected for 48 hours or performed with 0.5% supplement starvation for 24 hours on 6-well plates as described above and dissociated by Accutase (Gibco, USA) to obtain cell suspension. Geltrex reduced growth factor basement membrane matrix ((Invitrogen, CA, USA) was thawed at 4° C. overnight and added into a 96-well plate (50 µl/well) next. The coated 96-well plate was placed in the incubator more than 30 mins for further use and the cell suspension was seeded into it at a density of 1.5 x 10^4/well. For NRP-1 silencing experiments, cells were cultured with complete medium. For polypeptide treatment experiments, cells were stimulated with complete medium plus the different concentration of polypeptide. For NRP-1 rescued experiments, cells transfected with siRNA were cultured with complete medium and NRP-1 stimulations. After a 24-hour incubation, images were recorded by an inverted microscope (Nikon, Eclipse TE2000-U, Japan) and the sum length of master segments of vessels in each image were quantified using Angiogenesis Analyzer plug-in ImageJ software program (pixel/unit). Data were analyzed with photographs from 8-14 wells per condition.
# (§1) Human umbilical cord endothelial cells were first treated with a scramble non-coding siRNA (NC) or siRNA for NRP-1, subsequently treated with FOL26 in concentrations of 10 nM, 100 nM, and 1000 nM, and endothelial tube formation and the total master segemnts were measured using ImageJ. gene expression of PECAM-1 (CD31) analyzed.
# Quantified measurement of total length (FIG. 20b), total master segments length (FIG. 20c), total branching length (FIG. 20d) and total segments length (FIG. 20e) were performed to evaluate angiogenesis in vitro (n=7 per group for FIG. 29 b-e). The quantification of vessel density was assessed with CD31+ positive area (FIG. 21a, n=13 per group). Western blot analysis of phosphorylated AKT (pAKT-T308), AKT, phosphorylated ERK1/2 (p-ERK1/2) and ERK1/2 in endothelial cells stimulated with FOL-26 peptides for 48 hours (FIG. 21b). Quantification of phosphorylation intensities normalized to respective total expressions (FIG. 21c-d, n=3 per group).
# Tube formation with rising dose of FOL-026 peptide treatment in siRNA-NC or siNRP-1 group (FIG. 24a) and total length (FIG. 24b), total master segments length (FIG. 24c), total branching length (FIG. 24d) and total segments length (FIG. 24e) was calculated using Angiogenesis Analyzer plug-in ImageJ (n=7-12 per group). Scale bar=150 um. Data are presented as means±SEM and acquired from 3 to 4 independent replicate tests. *P<0.05, **P<0.01, ***P<0.001, ****P<0.0001 by two-way ANOVA followed with Sidak's and Dunnett's multiple comparisons test.
# Quantified measurement of total master segments length FIG. 31b was used to evaluate angiogenesis in vitro (n=7 per group). Scale bar=150 um.
# [2] = tested on: Human umbilical cord endothelial cells (HUVECs); assay: Gene expression by PCR in endothelial cells; settings: for expression of PECAM-1 (CD31): HUVECs
# Method: as §1
# Cells on 6-well plates were washed with cold DPBS (Gibco, USA) and homogenized in Trizol reagent (Invitrogen, CA, USA). Total RNA was extracted using PureLink RNA Mini Kit (Invitrogen, CA, USA), followed by nucleic acid quantification with NanoDrop 2000c (Thermo Fisher Scientific, USA). To determine mRNA expression of target genes, real-time qPCR was performed using by KAPA SYBR FAST One-Step qRT-PCR Master Mix Kit (KAPA Biosystems, USA) on LightCycler480 system (Roche, Mannheim, Germany). All primers were purchased from miScript Primer Assays (Qiagen, Valencia, CA) and GAPDH mRNA expression of each sample was used for normalization. Cells on 6-well plates were washed with cold DPBS and lysed with the mixture of lysis buffer and protease inhibitors on ice, then centrifuged at 15,000 g for 20 min at 4° C. Supernatant was performed to measure the protein concentration using BCA Protein Assay Kit (Thermo Fisher Scientific, USA). Protein sample was loaded onto SDS-PAGE gels and separated with electrophoresis, followed by transferred to PVDF membranes (Millipore, USA). Membranes were blocked with 5% nonfat milk. Primary antibodies (Abcam, UK) and secondary antibodies were performed to incubate with membranes at 4° C. overnight and at room temperature for 1 hour respectively. […]
# [3] = tested on: Human umbilical cord endothelial cells (HUVECs); assay: sFasL-induced apoptosis, caspase 3 and 7 activation, HUVECs; settings: 10 nM, 100 nM, 1000 nM
# Method: (§2) Human Umbilical Vein Endothelial Cells (HUVECs) and Human Coronary Artery Smooth Muscle Cells (HCASMCs) were purchased from Thermo Fisher. Cells were grown in Medium 200 containing 2% Low Serum Growth Supplement and Medium 231 with 5% Smooth Muscle Growth Supplement (Invitrogen, CA, USA) respectively with addition of Antibiotic-Antimycotic (1%, Invitrogen, CA, USA). Test polypeptide and sFasL (PeproTech, NJ, USA) were dissolved in the respective complete medium.
# (§3) Caspase-Glo 3/7 Assay (Promega, USA) was performed to evaluate cell apoptosis. HUVECs and HCASMCs were seeded into 96-well plates at a density of 3-5×10^3 per well. For additional NRP-1 on cells transfected siRNA, NRP-1 was added 24 hours after transfection and the mixture of Caspase-Glo 3/7 was added 48 hours after polypeptide stimulations. Subsequent steps were performed as manufacturer's instructions using the FOL26 and FOL56 as test compounds. Data were read by Wallac 1420 Victor 2 (Perkin Elmer, USA).
# [4] = tested on: human coronary artery smooth muscle cells (HCASMCs); assay: sFasL-induced apoptosis, caspase 3 and 7 activation, HCASMCs; settings: 10 nM, 100 nM, 1000 nM
# Method: as §2, §3
Sequence,"tube formation (total length, master segments, branching, segments length) [1]","expression of PECAM-1 (CD31) ([2]; 10 nM, 100 nM, 1000 nM tested)",expression of PECAM-1 (CD31) ([2]; 100 nM and 1000 nM),angiogenesis related genes ([2]; endothelial cells),endothelial tube formation after NRP-1 knock-down [1],endothelial tube formation after NRP-1 knock-down ([1]; listed as FOL26),endothelial tube formation ([1]; listed as FOL26),sFasL-induced apoptosis (caspase 3 and 7) ([3]; listed as FOL26),sFasL-induced apoptosis (caspase 3 and 7) ([4]; listed as FOL26),endothelial tube formation [1],sFasL-induced apoptosis (caspase 3 and 7) [3],sFasL-induced apoptosis (caspase 3 and 7) [4]
VDTYDGDISVVYGLR [FOL-005],increases the tube formation,,,,,,,,,,,
VDTYDGGISVVYGLR [FOL-026],positive effect,increased expression of PECAM-1,increased,induces upregulation,induce tube formation,increased tube formation compared to control in a NRP-1 dependent way,significantly increased tube formation; also recorded: increased tube formation compared to control,reduced sFasL-induced apoptosis; also recorded: capable of reversing the sFasL-induced apoptosis,reduced sFasL-induced apoptosis; also recorded: capable of reversing the sFasL-induced apoptosis,,,
AEIDSIELSYGIK [FOL56],,increased expression of PECAM-1,,,,,,,,significantly increased tube formation; also recorded: increased tube formation at all concentrations,"reduced sFasL-induced apoptosis; also recorded: capable of inhibiting, or trended towards inhibiting apoptosis","reduced sFasL-induced apoptosis; also recorded: capable of inhibiting, or trended towards inhibiting apoptosis"
